Results published in US9981951B2, “Crystalline and amorphous forms of Olaparib” (Olon S.P.A., priority 2015, dated 2018).

What was measured:
Assay type in all cases: physicochemical
[1] = stability of the solid form (air, moisture, heat)
[2] = solubility in various organic solvents and in water; conditions: compared with crystalline forms A and L of Olaparib
[3] = hygroscopicity

| Compound | stability to air and heat ([1]; air and heat, long time (30 days)) | stability when exposed to a water-saturated environment ([1]; water-saturated environment) | solubility in various organic solvents and in water [2] | stability if exposed to the moisture in the air ([1]; exposed to the moisture in the air) | hygroscopicity [3] |
| --- | --- | --- | --- | --- | --- |
| O=C(c1cc(Cc2n[nH]c(=O)c3ccccc23)ccc1F)N1CCN(C(=O)C2CC2)CC1 [4-[3-(4-cyclopropanecarbonyl-piperazine-1-carbonyl)-4-fluorobenzyl]-2H-phthalazin-2-one] | stable to air and heat for a long time (30 days) | maintains its original physicochemical characteristics |  |  |  |
| O=C(c1cc(Cc2n[nH]c(=O)c3ccccc23)ccc1F)N1CCN(C(=O)C2CC2)CC1 [amorphous form of Olaparib, 4-[3-(4-cyclopropanecarbonyl-piperazine-1-carbonyl)-4-fluorobenzyl]-2H-phthalazin-2-one] |  |  | better solubility | stable | not hygroscopic |
